Data published in US20050050594A1, “Tryptophan synthase as a site of herbicide action” (priority 1999, published 2005).
Where two headings read alike, the source gives them in different places.

Assays:
[1] = biological target: T1, Salmonella typhimurium tryptophan synthase holoenzyme (α2β2), TSα reaction (Salmonella typhimurium, UniProt P00929); experiment: Inhibition of tryptophan synthase by the TSα reaction, microtiter kinetic coupled enzyme assay; type: biochemical; conditions: for activity in enzyme inhibitory assays, relative to inhibitors 1-5: comparison within the series of inhibitors 1 to 5
T1 construct: made in house; host or cells: E. coli strain CB149pSTB7
Excerpt: Inhibitors of TS were identified by their ability to inhibit the production of glyceraldehyde-3-P by the TSα reaction of the Salmonella typhimurium holoenzyme (α2β2) in the presence of a limiting amount of indole-3-glycerolphosphate and an excess of serine
The assay was developed as a new microtiter plate kinetic enzyme assay based on the combined methods of Creighton (EurJBch 13:1-10, 1970) and Creighton and Yanofsky (JBC 241:980, 1966) with modifications. The rate of glyceraldehyde production was measured as the linear […] (spectrophotometric absorbance at 340 nm) in the presence of glyceraldehyde-3-phosphate dehydrogenase in a coupled enzyme assay.
The assay solution contained a test inhibitor compound, 50 mM Tris-Cl (pH 7.8), 6 mM sodium arsenate, 5 μg/ml pyridoxal phosphate, 0.5 mM DTT, 0.18M NaCl, 60 mM serine, 1.6 mM NAD+, 8 e.u./ml yeast glyceraldehyde-3-phosphate dehydrogenase (Sigma, Catalog #G2647; Kirschner et al., Eur J Bch, 1975, 60:513 and approximately 1.5 e.u. Salmonella TS. 100 μM IGP was added to start the reaction, which was run at 37° C. and using 300 μl per assay in a microtiter plate.
The substrate IGP was used at 1.5 to 2 times its Km concentration to enhance the likelihood of identifying weak inhibitors, binding at the substrate binding site. This approach to identifying enzyme inhibitors was novel, since an excess of all substrates, (at least 5-times the Km value of each), is conventionally used in the measurement of enzyme activity.
Potential inhibitors were evaluated by adding 100 μM inhibitor (equimolar to substrate IGP):or less, in a 1:1 dilution series down from 100 μM, until the inhibition measured was less than 15%. Reaction rates at Vmax were compared in the presence and absence of inhibitors.
In addition, some weaker inhibitors were identified following preincubation of the inhibitor with the TS assay mix for 24 hrs prior to the addition of IGP. The identifying weaker inhibitors is to aid in a quantitative structure activity relationship (QSAR) evaluation, or to identify new herbicidal inhibitor leads. The previously known inhibitor IPP was used as a standard in all tests, where the I50 for IPP was 1-2 uM.

[2] = test system: a variety of dicotyledonous and monocotyledonous plants; experiment: Postemergence greenhouse herbicidal test; type: in vivo; conditions: for activity in herbicidal (biological) assays, relative to inhibitors 1-5: comparison within the series of inhibitors 1 to 5
Method: The herbicidal activity of the compounds was tested as described in the U.S. Pat. No. 5,635,449. […] In the tests, seedling plants are grown in jiffy flats for about two weeks. The test compounds are dispersed in 50/50 acetone/water mixtures containing 0.5% TWEEN®20, a polyoxyethylene sorbitan monolaurate surfactant of Atlas Chemical Industries, in sufficient quantities to provide the equivalent of about 1.0 kg to 8.0 kg per hectare of test compound when applied to the plants through a spray nozzle operating at 40 psi for a predetermined time. After spraying, the plants are placed on greenhouse benches and are cared for in the usual manner, commensurate with conventional greenhouse practices. From four to five weeks after treatment, the seedling plants are examined and rate according to the rating system set forth below.

Arabidopsis TS enzyme = biological target: T2, Arabidopsis TS enzyme (Arabidopsis thaliana, UniProt Q42529); experiment: TSα assay with recombinant plant TSα and TSβ expressed in E. coli; type: biochemical; conditions: inhibitor 82 uM; pAC 758 (1.5 ug) + pAC 755 (3 ug)
T2 construct: GST (N, cleaved yes); made in house; host or cells: E. coli DH5α (pGEX-2T constructs)
T2 sequence (Q42529 with tags, fused parts or gaps): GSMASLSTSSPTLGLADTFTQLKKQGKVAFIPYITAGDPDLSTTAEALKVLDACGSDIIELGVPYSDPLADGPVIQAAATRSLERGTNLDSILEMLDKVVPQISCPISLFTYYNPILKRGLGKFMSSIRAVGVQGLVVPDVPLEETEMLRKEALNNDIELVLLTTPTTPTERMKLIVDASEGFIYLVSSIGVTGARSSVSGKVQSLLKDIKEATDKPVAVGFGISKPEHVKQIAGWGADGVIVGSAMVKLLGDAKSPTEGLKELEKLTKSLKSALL
T2 sequence (P14671 with tags, fused parts or gaps partner): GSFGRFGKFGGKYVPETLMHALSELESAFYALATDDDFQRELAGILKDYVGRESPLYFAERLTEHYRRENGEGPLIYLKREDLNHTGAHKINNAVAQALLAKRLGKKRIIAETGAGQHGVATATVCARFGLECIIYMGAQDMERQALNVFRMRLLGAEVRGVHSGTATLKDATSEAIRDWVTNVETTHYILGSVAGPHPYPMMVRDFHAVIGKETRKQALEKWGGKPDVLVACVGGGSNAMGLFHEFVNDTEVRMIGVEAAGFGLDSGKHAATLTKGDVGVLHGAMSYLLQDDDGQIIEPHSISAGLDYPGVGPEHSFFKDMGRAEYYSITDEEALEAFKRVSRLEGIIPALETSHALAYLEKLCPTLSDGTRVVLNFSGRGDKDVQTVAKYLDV
Method: The plant TS proteins were expressed as fusion proteins with glutathione transferase (GST) to facilitate purification. After purification, the GST protein was cleaved off with thrombin as described above before the plant TS assays were performed. After thrombin cleavage, both TSα and TSβ-subunit proteins retained a Gly-Ser residue on the N-terminal of the protein in addition to the TS sequence. […]
The TSα enzyme assay was conducted as described in Example 3 for Salmonella TSα.
Specifically, phenylthiophosphonic acid compounds were used. The TSα assay conditions were as described for Salmonella TSα in Example 3 except that recombinant plant proteins were used instead of the Salmonella enzyme.

Arabidopsis thaliana = experiment: Herbicidal activity and tryptophan reversal on Arabidopsis grown on agar medium; type: in vivo; design: key: 0 - no effect; 9 - total kill; C - chlorotic seedlings 4-6 days after treatment
Method: In this experiment, TS inhibitors were tested on Arabidopsis thaliana grown Murashige minimal organics medium, (obtained from Life Technologies, Grand Island, N.Y.), containing 0.7% agar. Compounds were tested at different concentrations to assess their herbicidal activity.

Synechocystis PCC 6803 = experiment: End-product reversal in Synechocystis, culture growth in liquid medium; type: cell-based; conditions: for Culture density (%) / Culture density as A420: four days
Excerpt: Synechocystis is a unicellular green organism that is actually a photosynthetic bacterium, with a photosynthetic system very similar to that of higher plant chloroplasts. Culture growth of Synechocystis could be inhibited by a compound of the present invention, and the growth inhibition could be prevented in the presence of tryptophan.

[3] = I50 TS, TSα reaction of the highly purified Salmonella typhimiurium holoenzyme
[4] = post emergence greenhouse test, 4 kg/ha
[5] = I50 TS, TSα reaction of Salmonella holoenzyme
[6] = inhibitor 62 μM, +tryptophan 31 μM
[7] = inhibitor 62 μM, +tryptophan 62 μM
[8] = inhibitor 125 μM, +tryptophan 31 μM
[9] = inhibitor 125 μM, +tryptophan 62 μM
[10] = inhibitor 125 μM, no tryptophan

T1 sequence (P00929 whole entry): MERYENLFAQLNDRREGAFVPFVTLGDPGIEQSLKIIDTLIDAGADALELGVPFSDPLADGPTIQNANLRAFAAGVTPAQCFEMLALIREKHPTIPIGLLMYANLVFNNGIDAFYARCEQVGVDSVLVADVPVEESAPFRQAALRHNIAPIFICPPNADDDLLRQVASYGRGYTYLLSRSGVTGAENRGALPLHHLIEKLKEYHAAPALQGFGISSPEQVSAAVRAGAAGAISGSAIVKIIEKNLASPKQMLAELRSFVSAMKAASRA
T1 sequence (P0A2K1 2-397, further chain): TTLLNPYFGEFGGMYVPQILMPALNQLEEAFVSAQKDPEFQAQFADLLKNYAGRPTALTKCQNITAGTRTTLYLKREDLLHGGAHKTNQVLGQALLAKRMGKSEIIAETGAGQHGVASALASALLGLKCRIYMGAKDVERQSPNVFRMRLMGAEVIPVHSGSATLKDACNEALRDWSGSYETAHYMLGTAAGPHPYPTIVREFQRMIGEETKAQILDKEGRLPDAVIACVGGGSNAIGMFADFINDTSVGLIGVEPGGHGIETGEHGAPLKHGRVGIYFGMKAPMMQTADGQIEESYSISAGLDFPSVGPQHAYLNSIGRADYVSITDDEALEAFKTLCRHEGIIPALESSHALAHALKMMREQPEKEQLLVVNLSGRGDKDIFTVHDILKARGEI

O=P(O)(O)CCCCc1c[nH]c2ccccc12 [Compound 7b, Phosphonic acid, [4-(indol-3-yl)butyl]-]
IC50 [1, 3]: 20000 nM
IC50 ([1]; TS inhibition I50, TSα reaction, Salmonella holoenzyme, 30 min at 37° C., 100 μM IGP): 20000 nM
Herbicidal Activity [2, 4]: weak (weak activity = maximum 20-30% injury on any species)

Nc1ccccc1SCCCCP(=O)(O)O [Compound 13, 4-(2-aminophenylthio)-butylphosphonic acid]
IC50 ([1]; TSα reaction of Salmonella holoenzyme, read-out: I50 TS): 400 nM
activity in enzyme inhibitory assays, relative to inhibitors 1-5 [1]: weakest activity
Herbicidal Activity ([2]; Postemergence application): + (+ = 30-80% injury to one species)
activity in herbicidal (biological) assays, relative to inhibitors 1-5 [2]: weakest activity

O=P(O)(O)CCCc1c[nH]c2ccccc12 [Compound 7a]
IC50 [1, 3]: 125000 nM
Herbicidal Activity [2, 4]: inactive

O=P(O)(O)CCCC[S+]([O-])c1ccccc1O (stereo not shown) [Compound 32, {4-[(o-hydroxyphenyl)sulfinyl]butyl}phosphonic acid]
IC50 [1, 5]: 440 nM
Herbicidal Activity ([2]; Postemergence application): +++ (+++ = 80-100% injury to two species)
TSα activity, % of control (Arabidopsis TS enzyme): 1.5 % of control
TSα activity, relative Vmax (Arabidopsis TS enzyme): 0.095 mOD/min

O=P(O)(O)C=CCCSc1ccccc1O [Compound 28, {4-[(o-hydroxyphenyl)thio]-1-butenyl}phosphonic acid]
IC50 [1, 5]: 570 nM
Herbicidal Activity ([2]; Postemergence application): ++++ (++++ = 80-100% injury to more than three species)
herbicidal rating (Arabidopsis thaliana; herbicide 7.8 mM + 100 μM Trp): 0
herbicidal rating (Arabidopsis thaliana; herbicide 7.8 mM, no Trp): 5C
herbicidal rating (Arabidopsis thaliana; herbicide 16 mM + 100 μM Trp): 0
herbicidal rating (Arabidopsis thaliana; herbicide 16 mM, no Trp): 5C
herbicidal rating (Arabidopsis thaliana; herbicide 31 mM + 100 μM Trp): 0
herbicidal rating (Arabidopsis thaliana; herbicide 31 mM, no Trp): 5C
herbicidal rating (Arabidopsis thaliana; herbicide 63 mM + 100 μM Trp): 0
herbicidal rating (Arabidopsis thaliana; herbicide 63 mM, no Trp): 6C
herbicidal rating (Arabidopsis thaliana; herbicide 125 mM + 100 μM Trp): 0
herbicidal rating (Arabidopsis thaliana; herbicide 125 mM, no Trp): 6C
herbicidal rating (Arabidopsis thaliana; herbicide 250 mM + 100 μM Trp): 0
herbicidal rating (Arabidopsis thaliana; herbicide 250 mM, no Trp): 6C
herbicidal rating (Arabidopsis thaliana; herbicide 500 mM + 100 μM Trp): 0
herbicidal rating (Arabidopsis thaliana; herbicide 500 mM, no Trp): 6C
herbicidal rating (Arabidopsis thaliana; herbicide 1000 mM + 100 μM Trp): 0
herbicidal rating (Arabidopsis thaliana; herbicide 1000 mM, no Trp): 6C

O=C(Oc1ccccc1SCCCCP(=O)(O)O)c1ccccc1 [Phosphonic acid, {4-[(2-hydroxyphenyl)thio]butyl}-, benzoate (ester)]
TSα activity, % of control (Arabidopsis TS enzyme): 2.7 % of control
TSα activity, relative Vmax (Arabidopsis TS enzyme): 0.168 mOD/min
effect of tryptophan on the growth inhibitory effects (Synechocystis PCC 6803): completely reversed
Culture density (%) (Synechocystis PCC 6803; [6]): 136%
Culture density as A420 (Synechocystis PCC 6803; [6]): 0.726
Culture density (%) (Synechocystis PCC 6803; [7]): 132%
Culture density as A420 (Synechocystis PCC 6803; [7]): 0.704
Culture density (%) (Synechocystis PCC 6803; inhibitor 62 μM, no tryptophan): 84%
Culture density as A420 (Synechocystis PCC 6803; inhibitor 62 μM, no tryptophan): 0.449
Culture density (%) (Synechocystis PCC 6803; [8]): 116%
Culture density as A420 (Synechocystis PCC 6803; [8]): 0.622
Culture density (%) (Synechocystis PCC 6803; [9]): 102%
Culture density as A420 (Synechocystis PCC 6803; [9]): 0.544
Culture density (%) (Synechocystis PCC 6803; [10]): 7%
Culture density as A420 (Synechocystis PCC 6803; [10]): 0.040

CC(C)N.CC(C)N.O=P(O)(O)C=CCCSc1ccccc1O [Inhibitor 1, 4-(2-hydroxyphenylthio)-1-butenylphosphonic acid, 1:2 salt with isopropylamine]
activity in enzyme inhibitory assays, relative to inhibitors 1-5 [1]: highest activity
activity in herbicidal (biological) assays, relative to inhibitors 1-5 [2]: highest activity

O=P(O)(O)C=CCCSc1cc(Br)ccc1O [Compound 31, Phosphonic acid, {4-[(5-bromo-2-hydroxyphenyl)thio]-1-butenyl}-]
IC50 [1, 5]: 260 nM
Herbicidal Activity ([2]; Postemergence application): + (+ = 30-80% injury to one species)
TSα activity, % of control (Arabidopsis TS enzyme): 16.1 % of control
TSα activity, relative Vmax (Arabidopsis TS enzyme): 0.238 mOD/min
